Assay results taken from ChEMBL document CHEMBL5500364, “Design, synthesis, and biological evaluation of some 2-(3-oxo-5,6-diphenyl-1,2,4-triazin-2(3H)-yl)-N-phenylacetamide hybrids as MTDLs for Alzheimer's disease therapy” (Eur J Med Chem, 2024).
The source made the active and inactive calls. The calls are words filed in the database; no cut-off is given here.

Tests used:
[1] = Acute toxicity in Wistar rat assessed as effect on central vein appearance in liver at 500 to 1000 mg/kg, po administered for 14 days by histopathological analysis; format: organism-based; settings: in vivo, 336 h, dose 500-1000 mg/kg, time 14 day
[2] = Acute toxicity in Wistar rat assessed as effect on vacuole appearance in liver at 500 to 1000 mg/kg, po administered for 14 days by histopathological analysis; format: organism-based; settings: in vivo, 336 h, dose 500-1000 mg/kg, time 14 day
[3] = Toxicity in wildtype Oregon R-positive Drosophila assessed as reduction in eclosion at 100 to 200 uM pretreated for 5 days and measured for 15 days; settings: 480 h, dose 100-200 µM, time 20 day
[4] = test system: Rattus norvegicus; experiment: Reversal of amyloid beta (1 to 42 residues) induced cognitive impairment in Wistar rat assessed as increase in platform crossings at 10 mg/kg, po pretreated with amyloid beta for 7 days followed by compound administration for 9 days and measured after 1 days by Morris water maze test; format: functional, organism-based; settings: time 10.0 day
[5] = test system: Drosophila; experiment: Neuroprotective activity against ey-GAL4>UAS-amyloid beta (1 to 42) induced cellular toxicity in Oregon R-positive Drosophila model assessed as rescue of ommatidial patterns in eye at 10 to 20 uM by scanning electron microscopic imaging analysis; format: functional, organism-based; settings: dose 10-20 µM
[6] = test system: Hippocampus; experiment: Reversal of scopolamine-induced oxidative stress in male Wistar rat brain hippocampus assessed as increase in GSH level preadministered orally with compound for 30 mins starting from 7 th day trail followed by scopolamine administration and measured after 5 mins; format: functional, tissue-based; settings: dose 2.5-10 mg/kg, route po, time 35.0 min
[7] = Total AUC in male Wistar rat at 10 mg/kg, po measured after 72 hrs by HPLC analysis; format: ADME, organism-based; settings: in vivo
[8] = test system: Rattus norvegicus; experiment: (§1) Reversal of amyloid beta (1 to 42 residues) induced cognitive impairment in Wistar rat assessed as decrease in amyloid level in CA3 region of hippocampus at 10 mg/kg, po pretreated with amyloid beta for 7 days followed by compound administration for 9 days and measured after 5 days by immuno histochemical analysis; format: functional, organism-based; settings: time 14.0 day
[9] = test system: Rattus norvegicus; experiment: (§2) Reversal of amyloid beta (1 to 42 residues) induced cognitive impairment in Wistar rat assessed as reduction in neural dispersion at DG region in hippocampus at 2.5 to 10 mg/kg, po pretreated with amyloid beta for 7 days followed by compound administration for 9 days and measured after 5 days by Nissl's staining based analysis; format: functional, organism-based; settings: dose 2.5-10 mg/kg, time 14.0 day
[10] = biological target: Beta-secretase 1 (Homo sapiens, UniProt P56817); experiment: Inhibition of human BACE-1 using (7-Methoxycoumarin-4-acetyl-[Asn670, Leu671]-Amyloid beta/A4 precursor protein 770 fragments 667-676- (2, 4-dinitrophenyl) Lys-Arg-Arg amide trifluoroacetate salt as substrate incubated for 2 hrs by FRET-based analysis
[11] = biological target: Amyloid-beta precursor protein (Homo sapiens) (UniProt P05067); experiment: Inhibition of amyloid beta (1 to 42) (unknown origin) aggregation assessed as appearance of thinner aggregates at 50 uM incubated for 48 hrs by TEM imaging analysis
[12] = test system: Rattus norvegicus; experiment: Reversal of amyloid beta (1 to 42 residues) induced cognitive impairment in Wistar rat assessed as increase in platform crossings at 10 mg/kg, po pretreated with amyloid beta for 7 days followed by compound administration for 9 days and measured after 5 days by Morris water maze test; format: functional, organism-based; settings: time 14.0 day
[13] = Acute toxicity in Wistar rat assessed as effect on cardiac muscle at 500 to 1000 mg/kg, po administered for 14 days by histopathological analysis; format: organism-based; settings: in vivo, 336 h, dose 500-1000 mg/kg, time 14 day
[14] = Toxicity in wildtype Oregon R-positive Drosophila assessed as eclosion at 10 uM pretreated for 5 days and measured for 15 days relative to control; settings: 480 h, time 20 day
[15] = test system: Rattus norvegicus; experiment: as §1, with “in BACE-1” for “in amyloid”, “in DG” for “in CA3”; format: functional, organism-based; settings: time 14.0 day
[16] = test system: SH-SY5Y; experiment: Neuroprotective activity against amyloid-beta(1 to 42) induced oxidative stress in differentiated human SH-SY5Y cells assessed as increase in cell viability at 40 uM preincubated with amyloid-beta (1 to 42 ) for 24 hrs followed by compound addition and measured after 72 hrs by MTT assay relative to control; format: functional
[17] = test system: Rattus norvegicus; experiment: Reversal of amyloid beta (1 to 42 residues) induced cognitive impairment in Wistar rat assessed as decrease in APP protein level at 10 mg/kg, po pretreated with amyloid beta for 7 days followed by compound administration for 9 days and measured after 5 days by Western blot analysis; format: functional, organism-based; settings: time 14.0 day
[18] = test system: Rattus norvegicus; experiment: Reversal of amyloid beta (1 to 42 residues) induced cognitive impairment in Wistar rat assessed as reduction in escape latency time at 10 mg/kg, po pretreated with amyloid beta for 7 days followed by compound administration for 9 days and measured after 1 days by Morris water maze test; format: functional, organism-based; settings: time 10.0 day
[19] = test system: Rattus norvegicus; experiment: Reversal of amyloid beta (1 to 42 residues) induced cognitive impairment in Wistar rat assessed as decrease in Tau protein level at 10 mg/kg, po pretreated with amyloid beta for 7 days followed by compound administration for 9 days and measured after 5 days by Western blot analysis; format: functional, organism-based; settings: time 14.0 day
[20] = test system: Rattus norvegicus; experiment: Upregulation of ACh level in scopolamine-induced male Wistar rat brain hippocampus preadministered with compound orally for 30 mins starting from 7 th day trail followed by scopolamine administration and measured after 5 mins by GENELISA; format: functional, tissue-based; settings: dose 2.5-10 mg/kg, route po, time 35.0 min
[21] = test system: Hippocampus; experiment: Reversal of scopolamine-induced oxidative stress in male Wistar rat brain hippocampus assessed as increase in SOD level at 2.5 to 10 mg/kg, po preadministered with compound for 30 mins starting from 7 th day trail followed by scopolamine administration and measured after 5 mins […]; format: functional, organism-based; settings: dose 2.5-10 mg/kg, time 35.0 min
[22] = Acute toxicity in Wistar rat assessed as effect on heart tissue at 500 to 1000 mg/kg, po administered for 14 days by histopathological analysis; format: organism-based; settings: in vivo, 336 h, dose 500-1000 mg/kg, time 14 day
[23] = Half-life in male Wistar rat at 10 mg/kg, po measured after 72 hrs by HPLC analysis; format: ADME, organism-based; settings: in vivo
[24] = test system: Rattus norvegicus; experiment: Reversal of amyloid beta (1 to 42 residues) induced cognitive impairment in Wistar rat assessed as decrease in BACE-1 protein level at 10 mg/kg, po pretreated with amyloid beta for 7 days followed by compound administration for 9 days and measured after 5 days by Western blot analysis; format: functional, organism-based; settings: time 14.0 day
[25] = test system: Rattus norvegicus; experiment: as §2, with “focal gliosis” for “neural dispersion at DG region”, “cerebral cortex” for “hippocampus”; format: functional, organism-based; settings: dose 2.5-10 mg/kg, time 14.0 day
[26] = Acute toxicity in Wistar rat assessed as toxicity signs at 500 to 1000 mg/kg, po administered for 14 days; format: organism-based; settings: in vivo, 336 h, dose 500-1000 mg/kg, time 14 day
[27] = biological target: Acetylcholinesterase (Homo sapiens, UniProt P22303); experiment: Mixed type non-competitive inhibition of human erythrocyte AChE using acetylthiocholine iodide as substrate assessed as dissociation constant by dixon plot analysis
[28] = test system: Rattus norvegicus; experiment: Antialzheimer activity against scopolamine-induced amnesia in male Wistar rat model assessed as increase in total arm enteries at 2.5 to 10 mg/kg, po preadministered with compound for 30 mins starting from 7 th day trail followed by scopolamine administration and measured after 5 mins by Y maze test; format: functional, organism-based; settings: dose 2.5-10 mg/kg, time 35.0 min
[29] = Permeability of compound in PBS at pH 7.4 incubated for 18 hrs by PAMPA-BBB assay
[30] = biological target: Amyloid-beta precursor protein (Homo sapiens) (UniProt P05067); experiment: Inhibition of amyloid beta (1 to 42) (unknown origin) aggregation assessed as reduction in size of amyloid-beta aggregates measured within 48 hrs by SEM imaging analysis
[31] = biological target: Amyloid-beta precursor protein (Homo sapiens) (UniProt P05067); experiment: Inhibition of amyloid beta (1 to 42) (unknown origin) aggregation assessed as maximum peak height of aggregates incubated for 48 hrs by AFM analysis

Chain of Amyloid-beta precursor protein (Homo sapiens) (P05067 whole entry, the tested form may be a part): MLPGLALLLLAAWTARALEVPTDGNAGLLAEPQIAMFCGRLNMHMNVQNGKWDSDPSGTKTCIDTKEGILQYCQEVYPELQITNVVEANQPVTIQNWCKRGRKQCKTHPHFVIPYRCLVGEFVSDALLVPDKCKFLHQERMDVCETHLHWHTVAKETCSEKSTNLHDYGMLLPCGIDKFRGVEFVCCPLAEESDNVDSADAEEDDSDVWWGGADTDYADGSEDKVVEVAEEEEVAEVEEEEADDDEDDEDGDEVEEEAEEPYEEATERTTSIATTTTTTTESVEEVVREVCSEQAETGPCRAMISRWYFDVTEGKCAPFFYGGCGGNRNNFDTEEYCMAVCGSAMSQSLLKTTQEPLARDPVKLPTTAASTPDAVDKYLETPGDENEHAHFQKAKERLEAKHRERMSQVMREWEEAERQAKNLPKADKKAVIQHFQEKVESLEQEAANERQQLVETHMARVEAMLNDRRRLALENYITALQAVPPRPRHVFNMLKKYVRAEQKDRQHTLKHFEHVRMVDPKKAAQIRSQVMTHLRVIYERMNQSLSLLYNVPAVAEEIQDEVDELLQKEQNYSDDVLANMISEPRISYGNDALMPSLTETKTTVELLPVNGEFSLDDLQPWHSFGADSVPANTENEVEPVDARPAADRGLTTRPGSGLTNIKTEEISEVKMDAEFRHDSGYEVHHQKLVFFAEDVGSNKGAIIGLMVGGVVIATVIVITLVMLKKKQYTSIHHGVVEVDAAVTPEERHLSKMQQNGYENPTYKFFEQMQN
Chain of Beta-secretase 1 (P56817 whole entry, the tested form may be a part): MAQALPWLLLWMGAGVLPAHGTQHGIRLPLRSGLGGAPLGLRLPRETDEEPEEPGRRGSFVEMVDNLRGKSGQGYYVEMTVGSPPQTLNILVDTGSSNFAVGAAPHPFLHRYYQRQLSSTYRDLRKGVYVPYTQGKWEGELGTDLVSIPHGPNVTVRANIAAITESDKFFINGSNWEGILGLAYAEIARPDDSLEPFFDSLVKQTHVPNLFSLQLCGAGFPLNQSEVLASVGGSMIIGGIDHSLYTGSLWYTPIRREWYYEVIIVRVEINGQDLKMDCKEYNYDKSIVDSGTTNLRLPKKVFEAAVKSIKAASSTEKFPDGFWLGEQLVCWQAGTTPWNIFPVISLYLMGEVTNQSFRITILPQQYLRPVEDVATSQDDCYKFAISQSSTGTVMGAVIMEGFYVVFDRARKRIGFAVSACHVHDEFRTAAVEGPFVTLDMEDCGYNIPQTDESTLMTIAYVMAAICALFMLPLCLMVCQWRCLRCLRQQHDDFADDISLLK
Chain of Acetylcholinesterase (P22303 whole entry): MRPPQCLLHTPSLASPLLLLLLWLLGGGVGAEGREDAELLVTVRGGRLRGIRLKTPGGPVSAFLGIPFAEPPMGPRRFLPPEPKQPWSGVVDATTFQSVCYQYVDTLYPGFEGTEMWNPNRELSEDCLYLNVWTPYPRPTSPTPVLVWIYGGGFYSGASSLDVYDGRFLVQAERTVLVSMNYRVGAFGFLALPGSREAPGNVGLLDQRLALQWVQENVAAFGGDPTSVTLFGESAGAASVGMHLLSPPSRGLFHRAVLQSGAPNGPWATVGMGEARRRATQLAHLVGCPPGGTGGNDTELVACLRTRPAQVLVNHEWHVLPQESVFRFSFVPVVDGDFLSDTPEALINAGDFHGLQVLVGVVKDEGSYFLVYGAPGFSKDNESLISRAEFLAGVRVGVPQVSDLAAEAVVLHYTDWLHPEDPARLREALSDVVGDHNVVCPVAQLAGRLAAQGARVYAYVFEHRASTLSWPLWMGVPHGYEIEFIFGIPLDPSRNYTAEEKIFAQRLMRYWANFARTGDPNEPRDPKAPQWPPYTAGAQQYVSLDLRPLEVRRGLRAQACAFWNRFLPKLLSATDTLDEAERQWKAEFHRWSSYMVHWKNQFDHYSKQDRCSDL

In the case of `COc1cc(NC(=O)Cn2nc(-c3ccccc3)c(-c3ccccc3)nc2=O)cc(OC)c1`, the Activity [1] is reported as “Non-Toxic”, the Activity [2] is reported as “Non-Toxic” and the Activity [3] is reported as “Toxic”. For the same molecule, the Activity [4] was “inactive”, the Activity [5] was “Active” and the Activity [6] was “Dose-Dependent Effect”. The AUC at 72 h [7] was 1740 ng·h/mL, the Activity [8] was “Active” and the Activity [9] was “Active”. The IC50 [10] was 0.542 µM, the inhibition [11] was “Active” and the Activity [12] was “Active”. The Activity [13] was “Non-Toxic”, the Activity [14] was 85% and the Activity [15] was “Active”. The Activity [16] was 82%, the Activity [17] was “Active” and the Activity [18] was “inactive”. The Activity [19] was “Active”, the Activity [20] was “Dose-Dependent Effect” and the Activity [21] was “Active”. The Activity [22] was “Non-Toxic”, the half-life [23] was 41 h and the Activity [24] was “Active”. For the same molecule, the Activity [25] was “Active”, the Activity [26] was “Non-Toxic” and the Kd [27] was 0.412 µM. For the same molecule, the Activity [28] was “Active”, the Papp at 18 h [29] was 5.64 ×10⁻⁶ cm/s and the inhibition [30] was “Active”. It also gave an Activity [31] of 253 nm.
